Here are results for one compound from patent US11673888B2, “Bicyclic compounds as ATX inhibitors” (Hoffmann-La Roche Inc., priority 2017, dated 2023).

Molecules are shown by their SMILES.

The target in this assay is ATX (human His-tagged) (Homo sapiens (Human), UniProt Q13822). Kind of assay: Human ATX Enzyme Inhibition Assay (fluorescence quenching, MR121 substrate). It counts as biochemical. The settings on record: 30 nM ATX, 1 μM MR121 substrate, 30° C. On the procedure:
Autotaxin (ATX-ENPP2) cloning: cDNA was prepared from commercial human hematopoietic cells total RNA and used as template in overlapping PCR to generate a full length human ENPP2 ORF with or without a 3′-6×His tag. These full length inserts were cloned into the pcDNA3.1V5-His TOPO (Invitrogen) vector. The DNA sequences of several single clones were verified. The DNA from a correct full length clone was used to transfect Hek293 cells for verification of protein expression. The sequence of the encoded ENPP2 conforms to Swissprot entry Q13822, with or without the additional C-terminal 6×His tag. ATX Fermentation: Recombinant protein was produced by large-scale transient transfection in 20 L controlled stirred tank bioreactors (Sartorius). During cell growth and transfection, temperature, stirrer speed, pH and dissolved oxygen concentration were maintained at 37° C., 120 rpm, 7.1 and 30% DO, respectively. […] Expression was analyzed by Western Blot, enzymatic assay and/or analytical IMAC chromatography. […] Human ATX Enzyme Inhibition Assay ATX inhibition was measured by a fluorescence quenching assay using a specifically labeled substrate analogue (MR121 substrate). […]

Compound `O=C(c1cnc(OCC2CCOCC2)c(C2CC2)c1)N1CCc2nc(C(=O)N3CCc4[nH]nnc4C3)sc2C1` [Example 1.03] gave a 50% inhibitory concentration (IC50) of 5 nM.

For orientation: IC50 means the concentration needed to halve the response being measured.
